Our source for the pKa values is US9437446B2, “Slurry for chemical mechanical polishing and chemical mechanical polishing method” (KURARAY CO., LTD., priority 2012, dated 2016).

A short description of data set [1]: pKa of the amino group (conjugated acid) of the amino compound used in the slurry. The note with it: water.

Text: Such value of the pKa can be measured by the potentiometric titration method. In the present specification, the pKa of the amino group is “pKa of conjugated acid of the amino group”.

One may read the pKa as the pH at which an ionisable group is half protonated. A low value points to a group that gives up its proton readily. `CCNC[C@H](O)[C@@H](O)[C@H](O)[C@H](O)CO` [N-ethyl glucamine, N-ethylglucamine]: the pKa in data set [1] is 9.5.

Turning to `CCCCNCCO` [2-(butylamino)ethanol], the pKa in data set [1] was 10.

As for `N[C@H]1C(O)O[C@H](CO)[C@@H](O)[C@@H]1O` (stereo partly shown) [glucosamine], the pKa in data set [1] came out at 7.6.

In “physchem”, `CNC[C@H](O)[C@@H](O)[C@H](O)[C@H](O)CO` [N-methyl glucamine, N-methylglucamine] displayed a pKa of […].
